According to patent publication US20240173353A1, “UNIVERSAL CHIMERIC ANTIGEN RECEPTOR T-CELL AND APPLICATION THEREOF” (SHANGHAI IASO BIOTECHNOLOGY CO., LTD., priority 2021, published 2024):
Read-outs that look alike come from different tables or passages of the source.

Experiments:
anti-BCMA CAR-T cells = experiment: Luciferase killing assay of anti-BCMA CAR-T on luciferase-positive target cells; settings: CBE3 and CBE3+sg12 groups, 100 nM dasatinib 12 hr, effector-to-target 1:1, 24 hr
T cells [1] = experiment: T cell activation by anti-CD3/CD28 DynaBeads, CD25/CD69/4-1BB expression by flow cytometry
Source text: The inventors pre-treated T cells with dasatinib or DMSO for 5 hr, then activated T cells with anti-CD3/CD28 DynaBeads for 24 hr, and then detected the expression of activation molecules CD25, CD69 and 4-1BB by flow cytometry.
In order to verify the tolerance of the LCK-T316I mutation to the function of dasatinib, the inventors carried out experimental verification on the T cells with LCK edited with different sgRNA lengths prepared in Example 2.
The inventors isolated CD3-positive T cells from human peripheral blood and divided them into eleven portions for processing, with 1e5 cells in each portion. One of these portions was not treated with dasatinib, anti-CD3/CD28 DynaBeads were not added to activate TCR, and this portion was as the initial control group; the other 10 portions of cells were pretreated with different concentrations of dasatinib for 4 hr, ten concentrations ranging from 0 nM to 50 nM were set, and then anti-CD3/CD28 DynaBeads were added to activate TCR signals overnight. On the second day, the expression of CD25, CD69 and 4-1BB activation signals was detected, and the activation of TCR signals was detected. Two replicates were set for each group of experiments.
The inventors divided each of the three groups of edited cells into 6 sub-groups and cultured them in a flat-bottomed 96-well plate. Each sub-group contained two technical replicates, and each well contained 0.15×10^6 cells. […] Subsequently, the cells were cultured for 18 hr. The activated T cell surface marker molecule 4-1BB was detected by using the APC-labeled murine IgG monoclonal antibody, and the activated T cell surface marker molecule CD25 was detected by using the PE-labeled murine IgG monoclonal antibody, and the activated T cell surface marker CD69 was detected by FITC-labeled murine IgG monoclonal antibody.
The inventors conducted research using two groups of T cells (CBE3 control group and Km edited group) in the above experiments. The experimental procedure is basically the same as the above-mentioned experiment (FIG. 32B). The two groups of edited cells were each divided into 7 sub-groups and cultured them in a flat-bottomed 96-well plate. Each sub-group contained two technical replicates, and each well contained 0.15×10^6 cells. […] Subsequently, the cells were cultured for 18 hr. The activated T cell surface marker molecule 4-1BB was detected by using the APC-labeled murine IgG monoclonal antibody, and the activated T cell surface marker molecule CD25 was detected by using the PE-labeled murine IgG monoclonal antibody, and the activated T cell surface marker CD69 was detected by FITC-labeled murine IgG monoclonal antibody.

[2] = cited from earlier work
T cells [3] = experiment: UCAR-T preparation process with dasatinib added after editing; format: cell-based, human; settings: experimental group, 100 nM DS added after editing
Procedure: The inventors isolated CD3-positive T cells from PBMCs from three different donors using PanT kits, knocked out the B2M and TRAC genes, and performed LCK-T316I editing on the cells. Then the cells were divided into two portions, to one portion, 100 nM DS was added (experimental group), and to the other portion, a corresponding amount of DMSO was added as a control (control group). After 2 hr, to the experimental group and the control group, T cell activators (CD2/CD3/CD28, 25 ul/1M/mL) were added. After 48 hr of activation, the cells were infected with the anti-CD19 CAR molecule through lentivirus infection, and the medium was replaced 24 hr after the virus infection, and DS or DMSO was removed at the same time.

CD5-UCAR-T cells = settings: reduced to 0 nM, Jurkat 4 hr
Procedure: Subsequently, they were treated overnight with dasatinib at a concentration of 50 nM or 25 nM, respectively. […] After 4 hr of co-incubation, CD107a release in CD8 and CAR double-positive cells was detected.
After 4 hr of co-incubation, CD107a release from CD8/CAR double-positive cells was detected.

anti-CD19-CAR-T cells = experiment: CD107a translocation of anti-CD19-CAR-T cells co-incubated with target cells; format: cell-based, human; settings: LCK-sgRNA16 editing group (43% T316I), 100 nM dasatinib 12 hr, Nalm6 target cells
Source text: First, the inventors edited the prepared anti-CD19 CAR-T by electroporation with the CBE3 protein, the RNP complex of CBE3 and LCK-sgRNA12, and the RNP complex of CBE3 and LCK-sgRNA16 respectively, to achieve three different editing treatments.

anti-BCMA-CAR-T cells = experiment: CD107a translocation of anti-BCMA-CAR-T cells co-incubated with target cells; format: cell-based, human; settings: LCK-sgRNA16 editing group (42% T316I), 100 nM dasatinib 12 hr
[4] = tested on: CD19/BCMA bispecific CAR-T cells; experiment: CD107a translocation of CD19/BCMA bispecific CAR-T cells; format: cell-based, human; settings: CAR-T cells with LCK-T316I mutation, 100 nM dasatinib 12 hr, U266B1 and Raji
Source text: The inventors edited the prepared CD19/BCMA dual-target CAR-T by electroporation with the CBE3 protein, the RNP complexes (18 nt and 21 nt) of CBE3 and LCK-sgRNA12, and the RNP complexes (18 nt and 21 nt) of CBE3 and LCK-sgRNA16 respectively, to achieve three different groups of editing treatments. […] These target cells include U266B1 (BCMA positive), Raji (CD19 positive), K562 (negative control), allogeneic T cells (negative control) and blank Buffer control (negative control).

[5] = tested on: normal human T lymphocytes; settings: in vitro; cited from earlier work
[6] = T cells, 20 nM dasatinib 4 hr, beads overnight
[7] = T cells, 25 nM dasatinib 4 hr, beads overnight
[8] = T cells, dasatinib increased to 50 nM, beads overnight

For `Cc1nc(Nc2ncc(C(=O)Nc3c(C)cccc3Cl)s2)cc(N2CCN(CCO)CC2)n1` [dasatinib], the “cytotoxicity of anti-BCMA CAR-T (luciferase value of RPMI-8226)” value (anti-BCMA CAR-T cells) was “significantly inhibited”, the “concentration that effectively inhibits T cell activation in vitro (minimum)” value (T cells [1]; T cells, 0-50 nM gradient) was 25 nM and the “percentage of CD25 and 4-1BB double-positive cells” value (T cells [1]; [6]) was 2.09%. The “percentage of CD25 and CD69 double-positive cells” value (T cells [1]; [6]) was 8.75%, the “percentage of CD25 and CD69 double-positive cells” value (T cells [1]; [7]) was 1.06% and the “percentage of double-positive cells (FIG. 20B, CD25 and 4-1BB as indicators)” value (T cells [1]; [7]) was 0.26%. For the same compound, the “concentration sufficient to inhibit activation of TCR signaling” value (T cells [1]; T cells, 5 hr pretreatment, beads 24 hr) was 100 nM, the “percentage of CD25 and CD69 double-positive cells” value (T cells [1]; [8]) was “below 1%” and the “percentage of double-positive cells (FIG. 20B, CD25 and 4-1BB as indicators)” value (T cells [1]; [8]) was “below 1%”. For the same compound, the “reduction of expression of activation molecules versus no dasatinib” value (T cells [1]; sgRNA16 group (about 50% edited), 100 nM dasatinib, anti-CD3/CD28 beads) was 20%-50%, the half-life in vivo [2] was 3 to 4 h and the “percentage of B2M and TRAC double knockout” value (T cells [3]) was “more than 50%”. For the same compound, the “positive CD107a release” value (CD5-UCAR-T cells; CD5-CART, repeat, 50 nM pretreatment) was 12.1%, the “positive CD107a release” value (CD5-UCAR-T cells; sg12 control CD5-UCART, 50 nM pretreatment overnight) was 12% and the “positive CD107a release” value (CD5-UCAR-T cells; sg16 (LCK-T316I) CD5-UCART, 50 nM pretreatment) was 16%. For the same compound, the “positive CD107a translocation in CD8 and CAR double-positive cells” value (“positive CD107a translocation” below) (anti-CD19-CAR-T cells) was 50%, the “positive CD107a translocation” value (anti-BCMA-CAR-T cells; RPMI-8226) was 44.7% and the “positive CD107a translocation” value (anti-BCMA-CAR-T cells; U266B1) was 39.6%. For the same compound, the CD107a positive rate [4] was “above 50%” and the “viability of T cells” value [5] was “will not affect the viability of T cells”.
